This passage reports IC50 results from US20230151034A1 (COCRYSTAL PHARMA, INC., priority 2020, published 2023).

Broadly, the IC50 is the concentration needed to halve the response being measured.

For one assay, the target named is SARS2 protease (Severe acute respiratory syndrome coronavirus 2, UniProt P0DTD1). In words: SARS-CoV-2 protease inhibition assay (SARS2 FRET protease assay). The format is biochemical.
Conditions: not given
How it is done: Viral protease assays: The antiviral activities of inhibitors were determined by FRET (Fluorescence Resonance Energy Transfer) assay. Purified viral protease was incubated with the protease substrate peptide (Edans-DFHLQ/GP-Dabcyl) and inhibitor, and IC50 values were subsequently determined by the fluorescence signals.
The SARS2 FRET protease assay was performed in 20 mM HEPES-Na pH 7, 120 mM NaCl, 0.4 mM EDTA, 0.01% Triton, 5% glycerol, and 4 mM DTT. A self-quenching peptide substrate 5-FAM-TSA VLQ SGF RKK (5TAMRA)-NH2 was custom synthesized by Anaspec. Compounds were diluted in 3-fold serial dilutions to final concentrations of 20 μM to 1.0 nM. SARS2 protease was added to a final concentration of 25 nM, depending on the enzyme activity level, and the peptide substrate was added to a final concentration of 1.3 μM. The assay was incubated 30 minutes at 30° C. and read in a Perkin Elmer Envision with excitation at 473 nm and emission measurement at 519 nm.
`CC(C)C[C@@H]1NC(=O)OC(Cc2ccccc2)CCC=CCC(C(=O)N(C)C)C[C@@H](C(=O)C(=O)NC(C)C)NC1=O` (stereo partly drawn) [Compound B42, (4S,7S)-15-benzyl-4-isobutyl-7-(2-(isopropylamino)-2-oxoacetyl)-N,N-dimethyl-2,5-dioxo-1-oxa-3,6-diazacyclopentadec-11-ene-9-carboxamide]: the IC50 was > 200 µM.
The same measure, in the same setting: for `CCCCCCCC1CCC/C=C/CC2(CCNC2=O)C[C@@H]([C@H](O)P(=O)(OCC)OCC)NC(=O)[C@H](CC(C)C)NC1=O` (stereo partly drawn) [Compound B22, Diethyl ((1R)-((7S,10S,E)-13-heptyl-10-isobutyl-1,9,12-trioxo-2,8,11-triazaspiro[4.14]nonadec-17-en-7-yl)(hydroxy)methyl)phosphonate] the value was > 200 µM.

The assay is the same for the next values; noted with them: Table E; SARS-CoV-2 protease inhibition; read-out: IC50.
For `CON(C)C(=O)[C@H](CCC(=O)N(C)CC(C)c1ccccc1)NC(=O)[C@H](CC1CCCCC1)NC(=O)OCc1cccc(Cl)c1` (stereo in doubt) [Compound A35, 3-chlorobenzyl ((2S)-3-cyclohexyl-1-(((2S)-1-(methoxy(methyl)amino)-5-(methyl(2-phenylpropyl)amino)-1,5-dioxopentan-2-yl)amino)-1-oxopropan-2-yl)carbamate], the IC50 was > 200 µM.
For the compound `CCOP(=O)(OCC)C(O)[C@H](CCC(=O)N(C)CCc1ccccc1Cl)NC(=O)[C@H](CC1CCCCC1)NC(=O)OCc1cccc(Cl)c1` (stereo partly drawn) [Compound A47, 3-Chlorobenzyl ((2S)-1-(((2S)-5-((2-chlorophenethyl)(methyl)amino)-1-(diethoxyphosphoryl)-1-hydroxy-5-oxopentan-2-yl)amino)-3-cyclohexyl-1-oxopropan-2-yl)carbamate], the IC50 was > 200 µM.
Turning to `CCCCCCCCC(=O)N[C@@H](CC(C)C)C(=O)NC1CCC(=O)N(C)C1(O)C(=O)NC(C)C` (stereo in doubt) [Compound A4, (3S)-2-hydroxy-N-isopropyl-1-methyl-3-((S)-4-methyl-2-nonanamidopentanamido)-6-oxopiperidine-2-carboxamide], the IC50 was > 200 µM.
With `CCCCCCCC1CCCCCCCC(C(=O)N(C)C)CC(C=O)NC(=O)[C@H](CC(C)C)NC1=O` (stereo in doubt) [Compound B17, (2S,5S)-5-formyl-15-heptyl-2-isobutyl-N,N-dimethyl-3,16-dioxo-1,4-diazacyclohexadecane-7-carboxamide], the concentration for half-maximal inhibition (IC50) was > 200 µM.
Regarding `CON(C)C(=O)[C@H](CCC(=O)N(C)CCc1cccc(Cl)c1)NC(=O)[C@H](CC1CCCCC1)NC(=O)OCc1cccc(Cl)c1` [Compound A23], the IC50 was > 200 µM.
Turning to `CCCCCCCC1CCCCCC(C(=O)N(C)C)CC(C(=O)N(C)OC)NC(=O)[C@H](CC(C)C)NC1=O` (stereo in doubt) [Compound B19, (2S,5S)-13-heptyl-2-isobutyl-N^5-methoxy-N^5,N^7,N^7-trimethyl-3,14-dioxo-1,4-diazacyclotetradecane-5,7-dicarboxamide], the IC50 was > 200 µM.
With `CCCCCCCC1CC/C=C/CC(C(=O)NC)C[C@@H](C(=O)N(C)OC)NC(=O)C(CC(C)C)NC(=O)O1` (single isomer, unassigned) [Compound B32], the IC50 was > 200 µM.
As to `CCS(=O)(=O)NCCN(C)C(=O)CC[C@H](NC(=O)[C@H](CC1CCCCC1)NC(=O)OCc1cccc(Cl)c1)C(=O)N(C)OC` (stereo in doubt) [Compound A29, 3-Chlorobenzyl ((S)-3-cyclohexyl-1-(((S)-5-((2-(ethylsulfonamido)ethyl)(methyl)amino)-1-(methoxy(methyl)amino)-1,5-dioxopentan-2-yl)amino)-1-oxopropan-2-yl)carbamate], the half-inhibitory concentration (IC50) was > 200 µM.
Still for that read-out and setting: for `CCCCCCCCC(=O)N[C@@H](CC(C)C)C(=O)N[C@H](CO)CCC(=O)NC` [Compound A110, N—((S)-1-(((S)-1-hydroxy-5-(methylamino)-5-oxopentan-2-yl)amino)-4-methyl-1-oxopentan-2-yl)nonanamide] the value was > 200 µM.
Take `CCCCCCCC1CC/C=C/CC(C(=O)NC)C[C@@H](C(=O)N(C)OC)NC(=O)[C@H](CC(C)C)NC(=O)O1` (stereo partly drawn) [Compound B64, (4S,7S,E)-15-heptyl-4-isobutyl-N^7-methoxy-N^7,N^9-dimethyl-2,5-dioxo-1-oxa-3,6-diazacyclopentadec-11-ene-7,9-dicarboxamide]: the IC50 was > 200 µM.
On the same count and under the same terms, for `CON(C)C(=O)[C@H](CCC(=O)N(C)CCc1ccc(Cl)cc1)NC(=O)[C@H](CC1CCCCC1)NC(=O)OCc1cccc(Cl)c1` (stereo in doubt) [Compound A41, 3-Chlorobenzyl ((S)-1-(((S)-5-((4-chlorophenethyl)(methyl)amino)-1-(methoxy(methyl)amino)-1,5-dioxopentan-2-yl)amino)-3-cyclohexyl-1-oxopropan-2-yl)carbamate] the value was 30 µM.
Still for that read-out and setting: for `CON(C)C(=O)[C@H](CC(C)C(=O)N(C)CCc1ccccc1)NC(=O)[C@H](CC1CCCCC1)NC(=O)OCc1cccc(Cl)c1` (stereo in doubt) [Compound A37, 3-Chlorobenzyl ((2S)-3-cyclohexyl-1-(((2S)-1-(methoxy (methyl)amino)-4-methyl-5-(methyl (phenethyl)amino)-1,5-dioxopentan-2-yl)amino)-1-oxopropan-2-yl) carbamate] the value was > 200 µM.
Consider `CCCCCCCC1CC/C=C\CC(C(=O)N(C)C)CC(C(=O)N(C)OC)NC(=O)[C@H](CC(C)C)NC1=O` (stereo in doubt) [Compound B11, (2S,5S,Z)-13-heptyl-2-isobutyl-N^5-methoxy-N^5,N^7,N^7-trimethyl-3,14-dioxo-1,4-diazacyclotetradec-9-ene-5,7-dicarboxamide], for which the 50% inhibitory concentration (IC50) was > 200 µM.
As to `CCCCCCCC1CC/C=C\CC(C(=O)NC)C[C@@H](CO)NC(=O)[C@H](CC(C)C)NC1=O` (stereo partly drawn) [Compound B65, (2S,5S,Z)-13-heptyl-5-(hydroxymethyl)-2-isobutyl-N-methyl-3,14-dioxo-1,4-diazacyclotetradec-9-ene-7-carboxamide], the half-inhibitory concentration (IC50) is > 200 µM.
Same read-out and setting: under `CCOC(=O)NCCN(C)C(=O)CC[C@H](NC(=O)[C@H](CC1CCCCC1)NC(=O)OCc1cccc(Cl)c1)C(O)P(=O)(OCC)OCC` (stereo partly drawn) [Compound A31, 3-Chlorobenzyl ((12S,15S)-16-cyclohexyl-12-((diethoxyphosphoryl)(hydroxy)methyl)-8-methyl-4,9,14-trioxo-3-oxa-5,8,13-triazahexadecan-15-yl)carbamate] stands 46 µM; under `CCNC(=O)OCCN(C)C(=O)CC[C@@H](CO)NC(=O)[C@H](CC1CCCCC1)NC(=O)OCc1cccc(Cl)c1` [Compound A101, 3-Chlorobenzyl ((12S,15S)-16-cyclohexyl-12-(hydroxymethyl)-8-methyl-4,9,14-trioxo-5-oxa-3,8,13-triazahexadecan-15-yl)carbamate], > 200 µM; under `CCCCCCCC1CCCC/C=C/CC(C(=O)N(C)C)CC(C=O)NC(=O)[C@H](CC(C)C)NC1=O` (stereo in doubt) [Compound B7, (2S,5S,E)-5-formyl-15-heptyl-2-isobutyl-N,N-dimethyl-3,16-dioxo-1,4-diazacyclohexadec-9-ene-7-carboxamide], > 200 µM.
Same read-out and setting: for `CCCCCCC1CCC/C=C\CC(C(=O)N(C)C)CC(C(=O)N(C)OC)NC(=O)C(CC(C)C)NC(=O)C1` (stereo in doubt) [Compound B14, (2S,5S,Z)-14-hexyl-2-isobutyl-N5-methoxy-N^5,N^7,N^7-trimethyl-3,16-dioxo-1,4-diazacyclohexadec-9-ene-5,7-dicarboxamide] the value was > 200 µM; for `CCNC(=O)CN(C)C(=O)CC[C@H](NC(=O)[C@H](CC1CCCCC1)NC(=O)OCc1cccc(Cl)c1)C(O)P(=O)(OCC)OCC` (stereo partly drawn) [Compound A17, 3-Chlorobenzyl ((2S)-3-cyclohexyl-1-(((2S)-1-(diethoxyphosphoryl)-5-((2-(ethylamino)-2-oxoethyl) (methyl)amino)-1-hydroxy-5-oxopentan-2-yl)amino)-1-oxopropan-2-yl) carbamate], 169 µM.
Consider `CCCCCCCC1CCCCCCCC(C(=O)N(C)C)CC(C(=O)N(C)OC)NC(=O)[C@H](CC(C)C)NC1=O` (stereo in doubt) [Compound B9, (2S,5S)-15-heptyl-2-isobutyl-N^5-methoxy-N^5,N^7,N^7-trimethyl-3,16-dioxo-1,4-diazacyclohexadecane-5,7-dicarboxamide], for which the IC50 was > 200 µM.
Same read-out and setting: under `CCCCCCCC1CCCCCC(C(=O)N(C)C)CC(C=O)NC(=O)[C@H](CC(C)C)NC1=O` (stereo in doubt) [Compound B18, (2S,5S)-5-formyl-13-heptyl-2-isobutyl-N,N-dimethyl-3,14-dioxo-1,4-diazacyclotetradecane-7-carboxamide] stands > 200 µM; under `CCNC(=O)OCCN(C)C(=O)CC[C@H](NC(=O)[C@H](CC1CCCCC1)NC(=O)OCc1cccc(Cl)c1)C(=O)N(C)OC` [Compound A21, 3-Chlorobenzyl ((12S,15S)-16-cyclohexyl-12-(methoxy(methyl)carbamoyl)-8-methyl-4,9,14-trioxo-5-oxa-3,8,13-triazahexadecan-15-yl)carbamate], > 200 µM.
The same measure, in the same setting: for `CCOP(=O)(OCC)C(O)[C@H](CCC(=O)N(C)CCc1ccncc1)NC(=O)[C@H](CC1CCCCC1)NC(=O)OCc1cccc(Cl)c1` (stereo partly drawn) [Compound A51, 3-Chlorobenzyl ((2S)-3-cyclohexyl-1-(((2S)-1-(diethoxyphosphoryl)-1-hydroxy-5-(methyl (2-(pyridin-4-yl)ethyl)amino)-5-oxopentan-2-yl)amino)-1-oxopropan-2-yl) carbamate] the value was > 200 µM.
